Source: US20120165306A1, “PYRAZINYLPYRIDINES USEFUL FOR THE TREATMENT OF PROLIFERATIVE DISEASES” (priority 2009, published 2012)

Target: Cdk9/cyclinT1 (Homo sapiens, UniProt P50750)
Assay: Cdk9/cyclinT1 kinase assay (IMAP or Alpha Screen protocol)
From the text: Cdk9/cyclinT1 IMAP Protocol
Fluorescence polarization (FP) is used for detection.
Cdk9/cyclinT1 Alpha Screen Protocol

Sequence of Cdk9/cyclinT1 (P50750 whole entry): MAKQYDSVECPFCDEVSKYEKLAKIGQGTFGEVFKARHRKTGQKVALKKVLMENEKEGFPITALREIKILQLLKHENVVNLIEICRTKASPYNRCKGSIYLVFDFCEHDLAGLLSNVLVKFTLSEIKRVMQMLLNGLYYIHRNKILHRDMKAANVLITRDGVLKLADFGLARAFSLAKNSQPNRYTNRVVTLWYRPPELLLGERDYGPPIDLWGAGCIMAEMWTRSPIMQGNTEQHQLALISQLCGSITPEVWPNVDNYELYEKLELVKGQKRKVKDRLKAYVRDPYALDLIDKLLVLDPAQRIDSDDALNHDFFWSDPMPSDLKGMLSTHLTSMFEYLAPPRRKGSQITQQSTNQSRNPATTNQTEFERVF
Sequence of Cdk9/cyclinT1 (O60563 whole entry partner): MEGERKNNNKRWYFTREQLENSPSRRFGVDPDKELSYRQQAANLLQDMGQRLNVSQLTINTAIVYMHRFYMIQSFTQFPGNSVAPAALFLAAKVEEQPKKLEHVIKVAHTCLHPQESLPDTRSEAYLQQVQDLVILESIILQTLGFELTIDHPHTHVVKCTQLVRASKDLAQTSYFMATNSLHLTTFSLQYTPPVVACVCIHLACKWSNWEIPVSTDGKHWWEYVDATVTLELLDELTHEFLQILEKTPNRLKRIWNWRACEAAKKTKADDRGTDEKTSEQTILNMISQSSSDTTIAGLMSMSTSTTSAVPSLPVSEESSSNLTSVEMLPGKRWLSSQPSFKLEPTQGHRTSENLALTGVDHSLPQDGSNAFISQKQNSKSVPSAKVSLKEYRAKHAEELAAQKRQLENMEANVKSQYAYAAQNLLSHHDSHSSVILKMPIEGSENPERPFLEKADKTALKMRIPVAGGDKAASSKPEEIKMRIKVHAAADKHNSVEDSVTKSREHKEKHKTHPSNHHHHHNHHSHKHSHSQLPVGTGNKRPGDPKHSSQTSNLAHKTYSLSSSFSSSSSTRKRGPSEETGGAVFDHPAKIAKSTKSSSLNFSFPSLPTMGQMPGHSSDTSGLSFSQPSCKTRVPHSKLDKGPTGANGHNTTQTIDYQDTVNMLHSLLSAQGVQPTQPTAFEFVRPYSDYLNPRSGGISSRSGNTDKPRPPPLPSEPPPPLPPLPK

| Compound | IC50 |
| --- | --- |
| O=C(Nc1cc(-c2cncc(NCc3ccccn3)n2)c(Cl)cn1)[C@@H]1CCCNC1 [Example 17, (R)-Piperidine-3-carboxylic acid (5-chloro-4-{6-[(pyridin-2-ylmethyl)-amino]-pyrazin-2-yl}-pyridin-2-yl)-amide] | 0.121 µM |
| CCN1CCC[C@@H](C(=O)Nc2cc(-c3cncc(NCC4CCOCC4)n3)c(Cl)cn2)C1 [Example 7, (R)-1-Ethyl-piperidine-3-carboxylic acid (5-chloro-4-{6-[(tetrahydro-pyran-4-ylmethyl)-amino]-pyrazin-2-yl}-pyridin-2-yl)-amide] | 0.229 µM |
| C[C@H](O)CNc1cncc(-c2cc(NC(=O)[C@@H]3CCCNC3)ncc2Cl)n1 [Example 29, (R)-Piperidine-3-carboxylic acid {5-chloro-4-[6-((S)-2-hydroxy-propylamino)-pyrazin-2-yl]-pyridin-2-yl}-amide] | 0.037 µM |
